Data from ChEMBL document CHEMBL3808327, “Natural Products as Sources of New Drugs from 1981 to 2014” (J Nat Prod, 2016).

Biological target: Serine/threonine-protein kinase B-raf (Homo sapiens, UniProt P15056, V600E)
Assay: Inhibition of N-terminal his-tagged BRAF V600E mutant (448 to 723 residues) (unknown origin) expressed in Escherichia coli BL21(DE3) cells assessed as phosphorylation of biotinylated-MEK by AlphaScreen assay

Chain of Serine/threonine-protein kinase B-raf (P15056 2-766 V600E limits assumed): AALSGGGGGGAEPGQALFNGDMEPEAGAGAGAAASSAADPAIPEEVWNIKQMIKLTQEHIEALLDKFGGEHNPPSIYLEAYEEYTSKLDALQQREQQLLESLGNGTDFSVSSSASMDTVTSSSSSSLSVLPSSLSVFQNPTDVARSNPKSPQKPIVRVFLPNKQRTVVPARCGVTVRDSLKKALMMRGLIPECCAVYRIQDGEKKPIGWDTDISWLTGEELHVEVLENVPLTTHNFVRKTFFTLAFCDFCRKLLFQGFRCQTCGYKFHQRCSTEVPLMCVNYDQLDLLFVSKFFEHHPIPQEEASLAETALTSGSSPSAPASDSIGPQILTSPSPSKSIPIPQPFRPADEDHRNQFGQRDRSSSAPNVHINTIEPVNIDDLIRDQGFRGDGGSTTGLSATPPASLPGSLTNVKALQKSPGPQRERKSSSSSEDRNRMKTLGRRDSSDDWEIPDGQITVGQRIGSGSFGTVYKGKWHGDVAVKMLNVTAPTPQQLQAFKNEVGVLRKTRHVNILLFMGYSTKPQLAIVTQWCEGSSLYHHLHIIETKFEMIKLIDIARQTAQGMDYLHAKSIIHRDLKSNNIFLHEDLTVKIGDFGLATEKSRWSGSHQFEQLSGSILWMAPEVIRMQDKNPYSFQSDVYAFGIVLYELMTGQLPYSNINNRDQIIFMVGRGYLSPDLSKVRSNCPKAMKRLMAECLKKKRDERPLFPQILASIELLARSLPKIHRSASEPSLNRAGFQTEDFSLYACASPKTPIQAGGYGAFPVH

- IC50: > 100 µM
Structure (SMILES): c1ccc(Nc2c[nH]c3ncccc23)cc1
